Reference: patent US9085555B2, “Complement pathway modulators and uses thereof” (priority 2011, dated 2015)

These compounds were tested against Factor D (Homo sapiens (Human), UniProt P00746) (assay: biochemical). Conditions: read-out: IC50.
Chain of Factor D (P00746 26-253): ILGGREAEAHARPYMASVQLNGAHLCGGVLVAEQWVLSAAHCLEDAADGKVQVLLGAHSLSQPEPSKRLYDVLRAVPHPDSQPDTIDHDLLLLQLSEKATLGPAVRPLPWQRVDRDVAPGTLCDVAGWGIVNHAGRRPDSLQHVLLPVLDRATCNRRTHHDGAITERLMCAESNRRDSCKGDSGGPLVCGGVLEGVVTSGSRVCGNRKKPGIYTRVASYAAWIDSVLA
Assay type: biochemical
Compound `NC(=O)n1cc(NC(=O)N2C[C@@H](N)C[C@H]2C(=O)NCCc2cccc(F)c2)c2ccccc21` [Example 89, (2S,4S)-4-Amino-pyrrolidine-1,2-dicarboxylic acid 1-[(1-carbamoyl-1Hindol-3-yl)-amide] 2-{[2-(3-fluoro-phenyl)-ethyl]-amide}] has an IC50 of 7700 nM.
In the case of `NC(=O)n1cc(NC(=O)N2C[C@@H](N)C[C@H]2C(=O)NCCc2cc(F)cc(Cl)c2)c2ccccc21` [Example 90, (2S,4S)-4-Amino-pyrrolidine-1,2-dicarboxylic acid 1-[(1-carbamoyl-1H-indol-3-yl)-amide] 2-{[2-(3-chloro-5-fluoro-phenyl)-ethyl]-amide}], the IC50 is reported as 1150 nM.
For `CC[C@H](C)[C@H](NC(=O)[C@@H]1C[C@H](N)CN1C(=O)Nc1cn(C(N)=O)c2ccccc12)C(=O)OC` [Example 92, (2S,3S)-2-{[(2S,4S)-4-Amino-1-(1-carbamoyl-1H-indol-3-ylcarbamoyl)-pyrrolidine-2-carbonyl]-amino}-3-methyl-pentanoic acid methyl ester], the IC50 was 8650 nM.
Work on `CCC[C@H](NC(=O)[C@@H]1C[C@H](N)CN1C(=O)Nc1cn(C(N)=O)c2ccccc12)C(=O)OC` [Example 93, (S)-2-{[(2S,4S)-4-Amino-1-(1-carbamoyl-1H-indol-3-ylcarbamoyl)-pyrrolidine-2-carbonyl]-amino}-pentanoic acid methyl ester] yielded an IC50 of 4000 nM.
For `COC(=O)[C@H](CC(C)C)NC(=O)[C@@H]1C[C@H](N)CN1C(=O)Nc1cn(C(N)=O)c2ccccc12` [Example 95, (S)-2-{[(2S,4S)-4-Amino-1-(1-carbamoyl-1H-indol-3-ylcarbamoyl)-pyrrolidine-2-carbonyl]-amino}-4-methyl-pentanoic acid methyl ester], the IC50 was 1350 nM.
Work on `COC(=O)[C@H](COC(C)(C)C)NC(=O)[C@@H]1C[C@H](N)CN1C(=O)Nc1cn(C(N)=O)c2ccccc12` [Example 96, (S)-2-{[(2S,4S)-4-Amino-1-(1-carbamoyl-1H-indol-3-ylcarbamoyl)-pyrrolidine-2-carbonyl]-amino}-3-tert-butoxy-propionic acid methyl ester] yielded an IC50 of 8050 nM.
For `COC(=O)[C@H](Cc1ccccc1)NC(=O)[C@@H]1C[C@H](N)CN1C(=O)Nc1cn(C(N)=O)c2ccccc12` [Example 97, (S)-2-{[(2S,4S)-4-Amino-1-(1-carbamoyl-1H-indol-3-ylcarbamoyl)-pyrrolidine-2-carbonyl]-amino}-3-phenyl-propionic acid methyl ester], the IC50 was 900 nM.
For `COC(=O)[C@@H](NC(=O)[C@@H]1C[C@H](N)CN1C(=O)Nc1cn(C(N)=O)c2ccccc12)c1ccccc1` [Example 98, (S)-{[(2S,4S)-4-Amino-1-(1-carbamoyl-1H-indol-3-ylcarbamoyl)-pyrrolidine-2-carbonyl]-amino}-phenyl-acetic acid methyl ester], the IC50 was 1850 nM.
`CC[C@H](C)[C@H](NC(=O)[C@@H]1C[C@H](N)CN1C(=O)Nc1cn(C(N)=O)c2ccccc12)C(N)=O` [Example 99, (2S,4S)-4-Amino-pyrrolidine-1,2-dicarboxylic acid 1-[(1-carbamoyl-1H-indol-3-yl)-amide] 2-[((1S,2S)-1-carbamoyl-2-methyl-butyl)-amide]] gave an IC50 of 23200 nM.
`CCc1cccc(CNC(=O)[C@@H]2C[C@H](N)CN2C(=O)Nc2cn(C(N)=O)c3ccccc23)c1` [Example 100, (2S,4S)-4-Amino-pyrrolidine-1,2-dicarboxylic acid 1-[(1-carbamoyl-1H-indol-3-yl)-amide] 2-(3-ethyl-benzylamide)] showed an IC50 of 17600 nM.
In the case of `CC[C@H](C)[C@@H](CO)NC(=O)[C@@H]1C[C@H](N)CN1C(=O)Nc1cn(C(N)=O)c2ccccc12` [Example 101, (2S,4S)-4-Amino-pyrrolidine-1,2-dicarboxylic acid 1-[(1-carbamoyl-1H-indol-3-yl)-amide] 2-[((1S,2S)-1-hydroxymethyl-2-methyl-butyl)-amide]], the IC50 is reported as 15200 nM.
In the case of `CC(C)c1cccc(NC(=O)[C@@H]2C[C@H](N)CN2C(=O)Nc2cn(C(N)=O)c3ccccc23)c1` [Example 102, (2S,4S)-4-Amino-pyrrolidine-1,2-dicarboxylic acid 1-[(1-carbamoyl-1H-indol-3-yl)-amide]2-[(3-isopropyl-phenyl)-amide]], the IC50 is reported as 567 nM.
`NC(=O)n1cc(NC(=O)N2C[C@@H](N)C[C@H]2C(=O)Nc2cccc(-c3ccccc3)c2)c2ccccc21` [Example 103, (2S,4S)-4-Amino-pyrrolidine-1,2-dicarboxylic acid 2-biphenyl-3-ylamide 1-[(1-carbamoyl-1H-indol-3-yl)-amide]] gave an IC50 of 550 nM.
With `NC(=O)n1cc(NC(=O)N2C[C@H](F)C[C@H]2CNS(=O)(=O)c2ccccc2F)c2ccccc21` [Example 104, 3-({(2S,4R)-4-Fluoro-2-[(2-fluoro-benzenesulfonylamino)-methyl]-pyrrolidine-1-carbonyl}-amino)-indole-1-carboxylic acid amide] the IC50 was 1490 nM.
`NC(=O)n1cc(NC(=O)N2C[C@H](F)C[C@H]2CNS(=O)(=O)c2ccccc2)c2ccccc21` [Example 105, 3-{[(2S,4R)-2-(Benzenesulfonylamino-methyl)-4-fluoro-pyrrolidine-1-carbonyl]-amino}-indole-1-carboxylic acid amide] gave an IC50 of 800 nM.
Compound `NC(=O)n1cc(NC(=O)N2C[C@H](F)C[C@H]2CNS(=O)(=O)c2cccc(F)c2)c2ccccc21` [Example 106, 3-({(2S,4R)-4-Fluoro-2-[(3-fluoro-benzenesulfonylamino)-methyl]-pyrrolidine-1-carbonyl}-amino)-indole-1-carboxylic acid amide] has an IC50 of 700 nM.
`NC(=O)n1cc(NC(=O)N2C[C@H](F)C[C@H]2CNS(=O)(=O)c2cccc(Cl)c2)c2ccccc21` [Example 107, 3-({(2S,4R)-4-Fluoro-2-[(3-chloro-benzenesulfonylamino)-methyl]-pyrrolidine-1-carbonyl}-amino)-indole-1-carboxylic acid amide] was tested, and the IC50 was 75 nM.
Compound `NC(=O)n1cc(NC(=O)N2C[C@H](F)C[C@H]2CNS(=O)(=O)c2cccc(Br)c2)c2ccccc21` [Example 108, 3-({(2S,4R)-4-Fluoro-2-[(3-bromo-benzenesulfonylamino)-methyl]-pyrrolidine-1-carbonyl}-amino)-indole-1-carboxylic acid amide] has an IC50 of 55 nM.
For `NC(=O)n1cc(NC(=O)N2C[C@H](F)C[C@H]2CNS(=O)(=O)c2cccc(OC(F)(F)F)c2)c2ccccc21` [Example 109, 3-({(2S,4R)-4-Fluoro-2-[(3-trifluoromethoxy-benzenesulfonylamino)-methyl]-pyrrolidine-1-carbonyl}-amino)-indole-1-carboxylic acid amide], the IC50 was 2700 nM.
`NC(=O)n1cc(NC(=O)N2C[C@H](F)C[C@H]2CNS(=O)(=O)c2cccc(Cl)c2F)c2ccccc21` [Example 110, 3-({(2S,4R)-2-[(3-Chloro-2-fluoro-benzenesulfonylamino)-methyl]-4-fluoro-pyrrolidine-1-carbonyl}-amino)-indole-1-carboxylic acid amide] gave an IC50 of 20 nM.
Compound `NC(=O)n1cc(NC(=O)N2C[C@H](F)C[C@H]2CNS(=O)(=O)c2ccc(Cl)s2)c2ccccc21` [Example 111, 3-({(2S,4R)-2-[(5-Chloro-thiophene-2-sulfonylamino)-methyl]-4-fluoro-pyrrolidine-1-carbonyl}-amino)-indole-1-carboxylic acid amide] has an IC50 of 60 nM.
Work on `NC(=O)n1cc(NC(=O)N2CCC[C@H]2CNS(=O)(=O)c2cccc(Cl)c2)c2ccccc21` [Example 112, 3-({(S)-2-[(3-Chloro-benzenesulfonylamino)-methyl]-pyrrolidine-1-carbonyl}-amino)-indole-1-carboxylic acid amide] yielded an IC50 of 550 nM.
Compound `NC(=O)n1cc(NC(=O)N2C[C@H](F)C[C@H]2CNC(=O)Cc2ccccc2)c2ccccc21` [Example 113, 3-{[(2S,4R)-4-Fluoro-2-(phenylacetylamino-methyl)-pyrrolidine-1-carbonyl]-amino}-indole-1-carboxylic acid amide] has an IC50 of 1150 nM.
For `NC(=O)n1cc(NC(=O)N2C[C@H](F)C[C@H]2CNCc2cccc(Cl)c2F)c2ccccc21` [Example 116, 3-({(2S,4R)-2-[(3-Chloro-2-fluoro-benzylamino)-methyl]-4-fluoro-pyrrolidine-1-carbonyl}-amino)-indole-1-carboxylic acid amide], the IC50 was 1150 nM.
`NC(=O)n1cc(NC(=O)N2CCC[C@H]2CNc2cccc(OC(F)(F)F)c2)c2ccccc21` [Example 117, 3-({(S)-2-[(3-Trifluoromethoxy-phenylamino)-methyl]-pyrrolidine-1-carbonyl}-amino)-indole-1-carboxylic acid amide] was tested, and the IC50 was 11800 nM.
Work on `NC(=O)c1cn(CC(=O)N2CCC[C@H]2C(=O)Nc2cccc(OC(F)(F)F)c2)c2ccccc12` [Example 118, 1-{2-oxo-2-[(S)-2-(3-trifluoromethoxy-phenylcarbamoyl)-pyrrolidin-1-yl]-ethyl}-1H-indole-3-carboxylic acid amide] yielded an IC50 of 17500 nM.
Compound `CC(=O)n1cc(CC(=O)N2CCC[C@H]2C(=O)Nc2cccc(OC(F)(F)F)c2)c2ccccc21` [Example 119, (S)-1-[2-(1-Acetyl-1H-indol-3-yl)-acetyl]-pyrrolidine-2-carboxylic acid (3-trifluoromethoxy-phenyl)-amide] has an IC50 of 4800 nM.
Compound `CC(=O)n1cc(C(N)C(=O)N2C[C@H](F)C[C@H]2C(=O)NCc2cccc(Cl)c2F)c2ccccc21` (stereo partly drawn) [Example 120, (2S,4R)-1-[2-(1-Acetyl-1H-indol-3-yl)-2-amino-acetyl]-4-fluoro-pyrrolidine-2-carboxylic acid 3-chloro-2-fluoro-benzylamide] has an IC50 of 3200 nM.
With `NC(=O)c1cc(NC(=O)N2CCC[C@H]2C(=O)Nc2cccc(OC(F)(F)F)c2)c2ccccn12` [Example 121, (S)-Pyrrolidine-1,2-dicarboxylic acid 1-[(3-carbamoyl-indolizin-1-yl)-amide]2-[(3-trifluoromethoxy-phenyl)-amide]] the IC50 was 1250 nM.
For `NC(=O)c1cc(NC(=O)N2CCC[C@H]2C(=O)Nc2cccc(OC(F)(F)F)c2)n2ccccc12` [Example 123, (S)-Pyrrolidine-1,2-dicarboxylic acid 1-[(1-carbamoyl-indolizin-3-yl)-amide]2-[(3-trifluoromethoxy-phenyl)-amide]], the IC50 was 2930 nM.
